These results are taken from US11944112B2, “Stabilized steviol glycoside malonic acid esters” (CARGILL, INCORPORATED, priority 2020, dated 2024).

The series can be described thus: Acid-stability at pH 1.7 (percent recovered by UHPLC/UV). It is filed as physicochemical. Conditions: water pH 1.7, room temperature (about 22° C.). The procedure: Acid-stability measurements were taken for samples of aspartame, SGMAs, and a combination of SGMAs with the stabilizer. […] Acid-stability was measured in water having a pH of 1.7. The concentration of the aspartame or the SGMAs in the samples during the testing was 0.1 to 10 wt %. The samples were stored at room temperature (nominally about 22° C.) and samples were taken periodically. The concentration of the aspartame, SGMAs, MCQAs and DCQAs, as the case may be, was measured by UHPLC/UV then divided by the original concentration to determine a percent recovered.
FIG. 1 illustrates the results for three samples—one had 3000 ppm (0.3 wt %) aspartame, another had 5 wt % SGMAs, and the third had 5 wt % each of the SGMAs and the stabilizer. Aspartame has limited solubility, but 3000 ppm is on par with concentrations of throw syrups used to make some diet carbonated soft drinks that have about 500 ppm of aspartame. […] After 14 days of storage, the concentration of aspartame was about 78% of the initial concentration; stated another way, about 22% of the aspartame was degraded. In the same 14 days, the concentration of SGMAs in the SGMA-only sample was about 67% of the initial concentration, a degradation of about 33%. That means the SGMA degradation was 50% higher than the aspartame degradation (33% vs 22%).

Each structure is given as a SMILES string. Where a SMILES comes first, the peptide text is derived from it.

As to `COC(=O)[C@H](Cc1ccccc1)NC(=O)[C@@H](N)CC(=O)O` [aspartame] (H-Asp-Phe-OMe), the “degradation after 14 days of storage” value is “about 22%”. Moreover, under “3000 ppm aspartame, 5 wt % SGMAs, or 5 wt % each SGMAs and stabilizer”, the “concentration as percent of the initial concentration (percent recovered) after 14 days of storage” value is given as “about 78%”.
